How the values were obtained:
E2F2 = E2F2 (Homo sapiens, UniProt Q14209); assay: competition in biotin-bufalin pull-down from HepG2 lysate; type: cell-based
[1] = molecular target: ZFP91 (zinc finger protein 91) (Homo sapiens, UniProt Q96JP5); assay: MST; type: binding
ZFP91 (zinc finger protein 91), sequence (Q96JP5 2-570): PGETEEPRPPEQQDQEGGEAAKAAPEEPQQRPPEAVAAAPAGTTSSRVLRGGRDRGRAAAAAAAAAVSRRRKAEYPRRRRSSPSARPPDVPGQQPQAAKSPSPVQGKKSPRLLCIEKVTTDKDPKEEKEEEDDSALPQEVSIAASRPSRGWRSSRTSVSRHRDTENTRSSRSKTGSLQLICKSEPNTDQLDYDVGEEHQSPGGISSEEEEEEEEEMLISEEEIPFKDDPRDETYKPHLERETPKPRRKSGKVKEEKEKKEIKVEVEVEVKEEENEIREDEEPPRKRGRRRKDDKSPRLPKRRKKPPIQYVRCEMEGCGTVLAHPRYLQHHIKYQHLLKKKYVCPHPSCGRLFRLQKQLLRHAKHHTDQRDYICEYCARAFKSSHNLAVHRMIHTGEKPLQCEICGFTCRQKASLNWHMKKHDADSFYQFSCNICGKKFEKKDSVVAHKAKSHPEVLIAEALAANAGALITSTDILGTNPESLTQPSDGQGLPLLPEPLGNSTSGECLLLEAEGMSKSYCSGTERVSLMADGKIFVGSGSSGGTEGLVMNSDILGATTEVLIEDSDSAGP

E2F2, sequence (Q14209 whole entry): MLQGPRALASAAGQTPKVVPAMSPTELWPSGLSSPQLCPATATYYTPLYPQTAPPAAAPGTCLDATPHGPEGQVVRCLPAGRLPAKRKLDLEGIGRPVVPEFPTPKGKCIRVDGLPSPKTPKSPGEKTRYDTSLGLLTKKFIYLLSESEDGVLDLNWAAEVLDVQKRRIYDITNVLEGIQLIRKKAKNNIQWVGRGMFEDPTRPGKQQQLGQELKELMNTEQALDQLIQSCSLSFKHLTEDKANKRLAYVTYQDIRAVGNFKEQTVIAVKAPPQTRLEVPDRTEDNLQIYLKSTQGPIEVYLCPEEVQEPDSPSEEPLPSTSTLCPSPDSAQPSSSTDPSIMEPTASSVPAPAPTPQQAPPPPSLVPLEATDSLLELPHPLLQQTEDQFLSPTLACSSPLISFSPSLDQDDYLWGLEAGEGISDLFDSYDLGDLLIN

Structure (SMILES)	competition in biotin-bufalin pull-down from HepG2 lysate (E2F2)	Kd [1] [nM]
C[C@]12CC[C@@H](O)C[C@@H]1CC[C@@H]1[C@@H]2CC[C@]2(C)C(=O)CC[C@@H]12 [DHA, androsterone]	DHA significantly limited the binding of biotin-bufalin to E2F2	
O=c1cccco1 [α-Pyr, α-Pyrone]		900 ± 322

From paper PMC9667253 (eBioMedicine, 2022)
